A value given as a limit tells only on which side of the number the result lay.

These results are taken from patent publication US20210290648A1, “Potentiation of B-Lactam Antibiotics and B-Lactam/B-Lactamase Inhibitor Combinations Against Multidrug and Extensively Drug-Resistant Pseudomonas Aeruginosa Using Non-Ribosomal Tobramycin-Cyclam Conjugates” (University of Manitoba, priority 2018, published 2021).

The test system of data set [1] is E. coli ATCC 25922. Description: MIC, microbroth dilution. In kind it is cell-based. The following applies: standalone. As for the experimental part: (§1) Antimicrobial Susceptibility Assay. The in vitro antimicrobial activity of all compounds/antibiotics against a panel of bacteria was evaluated by microbroth dilution method in accordance with the Clinical and Laboratory Standards Institute (CLSI) guidelines. Overnight grown bacterial cultures were diluted in saline to achieve a 0.5 McFarland turbidity, followed by 1:50 dilution in Mueller-Hinton broth (MHB) for inoculation to a final concentration of approximately 5×10^5CFU/mL. The antimicrobial agents were 2-fold serially diluted in MHB in a 96-well plate and incubated at 37° C. with equal volumes of inoculum for 18 h. The lowest concentration that prevented the visible growth of bacteria was defined as the MIC for each antimicrobial agent. The broth with or without bacterial cells was used as positive or negative control, respectively.
Background: In broth dilution the organism is exposed to a series of concentrations in liquid medium.

The subject of data set [2] is MRSE CAN-ICU 61589 (CAZ >32). Description: MIC, microbroth dilution. In kind it is cell-based. Particulars: standalone. As for the experimental part:
as §1

Data set [3] concerns MSSE CANWARD-2008 81388. Description: MIC, microbroth dilution. In kind it is cell-based. Particulars: standalone. As for the experimental part: as §1
For data set [4], the system named is K. pneumoniae ATCC 13883. Description: MIC, microbroth dilution. In kind it is cell-based, Klebsiella pneumoniae. The following applies: standalone. As for the experimental part:
as §1

Data set [5] concerns human liver carcinoma (HepG2) cells. Description: Cytotoxicity, PrestoBlue cell viability assay. The data set is classed as cell-based. The following applies: highest concentration 50 μM, 48 h. As for the experimental part: Cytotoxicity Assay. Human embryonic kidney cells (HEK293) and HepG2 cells were grown in Dulbecco's modified eagle's medium supplemented with 10% fetal bovine serum in a humidified […] incubator at 37° C. Equal number of cells (100 μl of media containing ˜8000 cells) were dispersed into 96-well plates and wells with medium but no cells were used as blanks. After incubating for 24 h, […] varying concentrations of test compounds (at twice the desired concentrations) were added to each well, including the blanks. The treated cells were then incubated further for 48 h, after which PrestoBlue reagent was added to each well. The plates were then incubated for an additional hour on a nutator mixer in a 5% CO2 incubator. The fluorescence was read at […] on a SpectraMax M2 plate reader (Molecular Devices, USA). Cell viability were interpreted as previously described (55, 77). The values of blank were subtracted from each value, and the viability values of the treated samples relative to the controls with vehicle were calculated. The values for the plots are the means±standard deviation.

Data set [6] deals with A. baumannii CAN-ICU 63169. Description: MIC, microbroth dilution. The data set is classed as cell-based. Particulars: standalone. The procedure: as §1
Data set [7] relates to E. coli CAN-ICU 61714 (GEN-R). Description: MIC, microbroth dilution. In kind it is cell-based. Particulars: standalone. The procedure:
as §1

In data set [8] the test system is E. coli CAN-ICU 63074 (AMK 32). Description: MIC, microbroth dilution. The data set is classed as cell-based. The following applies: standalone. As for the experimental part: as §1
The subject of data set [9] is E. coli CANWARD-2011 97615 (GEN-R, TOB-R, CIP-R) aac(3′)iia. Description: MIC, microbroth dilution. In kind it is cell-based. Particulars: standalone; E. coli CANWARD-2011 97615 (GEN-R, TOB-R, CIP-R). The procedure:
as §1

For data set [10], the system named is E. faecalis ATCC 29212. Description: MIC, microbroth dilution. In kind it is cell-based. The following applies: standalone. The procedure:
as §1

Data set [11] relates to E. faecium ATCC 27270. Description: MIC, microbroth dilution. The data set is classed as cell-based. Particulars: standalone. The procedure:
as §1

In data set [12] the test system is MRSA ATCC 33592. Description: MIC, microbroth dilution. The data set is classed as cell-based. Particulars: standalone. The procedure: as §1
The subject of data set [13] is S. aureus ATCC 29213. Description: MIC, microbroth dilution. Particulars: standalone. The data set is classed as cell-based. As for the experimental part: as §1
The subject of data set [14] is S. maltophilia CAN-ICU 62584. Description: MIC, microbroth dilution. In kind it is cell-based. Particulars: standalone. As for the experimental part: as §1
For data set [15], the system named is S. pneumoniae ATCC 49619. Description: MIC, microbroth dilution. In kind it is cell-based. The following applies: standalone. The procedure:
as §1

Data set [16] relates to P. aeruginosa ATCC 27853. Description: MIC, microbroth dilution. In kind it is cell-based, Pseudomonas aeruginosa. Particulars: standalone. The procedure:
as §1

The subject of data set [17] is P. aeruginosa CAN-ICU 62308 (GEN-R). Description: MIC, microbroth dilution. The data set is classed as cell-based, Pseudomonas aeruginosa. The following applies: standalone. The procedure:
as §1

For data set [18], the system named is P. aeruginosa CANWARD-2011 96846 (GEN-R, TOB-R). Description: MIC, microbroth dilution. In kind it is cell-based, Pseudomonas aeruginosa. The following applies: standalone. The procedure: as §1

One may read the MIC as the lowest concentration that inhibits growth of the organism. Regarding “5-O-(Dodecylcyclam)-tobramycin.9HCl [Compound 3]”, the MIC in data set [1] is 64 µg/mL; in [2] it was 32 µg/mL; in data set [3] it was 16 µg/mL; in data set [4], 64 µg/mL. In addition, the cell viability entry in [5] is listed as “about 60%”.
Regarding `NCC1OC(OC2C(N)CC(N)C(OC3OC(CO)C(O)C(N)C3O)C2OCCCCN2CCCNCCNCCCNCC2)C(N)CC1O.O=C(O)C(F)(F)F.O=C(O)C(F)(F)F.O=C(O)C(F)(F)F.O=C(O)C(F)(F)F.O=C(O)C(F)(F)F.O=C(O)C(F)(F)F.O=C(O)C(F)(F)F.O=C(O)C(F)(F)F.O=C(O)C(F)(F)F` (stereo not shown) [Compound 1, 5-O-(Butylcyclam)-tobramycin.9TFA], the MIC was above 128 µg/mL in data set [6]; 64 µg/mL in [1]; 128 µg/mL in data set [7]; above 128 µg/mL in [8]; above 128 µg/mL in data set [9]; above 128 µg/mL in data set [10]. Moreover, the MIC in data set [11] was above 128 µg/mL; in data set [12], 64 µg/mL; in [2], 64 µg/mL; in [3] it was 16 µg/mL; in [13], 64 µg/mL; in data set [14] it was above 128 µg/mL. The MIC in [15] is above 128 µg/mL; in data set [16], above 128 µg/mL; in data set [17], above 128 µg/mL; in [18], above 128 µg/mL; in [4] it was 32 µg/mL.
